Earlier results, collected in patent US20080171791A1, “Compositions and Method for Losing Weight” (MDR Fitness Corp., priority 2007, published 2008).
Each block holds one compound with its values, some of them ahead of it.

How the values were obtained:
lipogenic genes = settings: compared with oleic acid (C18-1)
[1] = test system: mammalian target of rapamycin (mTOR) signaling pathway; settings: rats; for food intake: administered near arcuate nucleus, approximately four hours after administration, lasted 24 hours
[2] = in vivo
[3] = long-term / large quantities / higher amounts ingested

SMILES: CCCCC/C=C\C/C=C\CCCCCCCC(=O)O [linoleic acid]
suppression of lipogenic genes (lipogenic genes): more effective

SMILES: CCCCC/C=C\C/C=C\C/C=C\C/C=C\CCCC(=O)O [arachidonic acid]
suppression of lipogenic genes (lipogenic genes): more effective

SMILES: CCCCCCCCC=CCCCCCCCC(=O)O [oleic acid, 9-octadecenoic acid]
absorption from the digestive tract [2]: absorbed intact
crossing the blood-brain barrier [2]: capable of crossing the blood-brain barrier

More lines, main results first:

solubility in water: slightly soluble in water
SMILES: CC(C)C[C@H](N)C(=O)O [L-leucine, leucine]
body weight ([1]; accompanying decrease in food intake): weight loss
food intake [1]: decrease
crossing the blood-brain barrier [2]: capable of crossing the blood-brain barrier

solubility in water: water soluble
SMILES: CC(C)[C@H](N)C(=O)O [L-valine, valine]
reported adverse effects [3]: hallucinations and crawling sensations on the skin
food intake [1]: did not cause the same effect

solubility in water: not soluble in water
SMILES: CCC(C)[C@H](N)C(=O)O (stereo in doubt) [Isoleucine, (2S, 3S)-2-amino-3-methylpentanoic acid]
reported adverse effects [3]: increased urination
